The values below come from paper PMC7988117, “OMN6 a novel bioengineered peptide for the treatment of multidrug resistant Gram negative bacteria” (Scientific Reports, 2021).

Values after ≈ are worked out from the molar mass of the structure shown. Read-outs that look alike come from different tables or passages of the source. Bridge positions count the residues as written; N and C are the ends. Peptide text beside a SMILES is read from it. A value given as a limit tells only on which side of the number the result lay.

In one data set the test system is Klebsiella pneumoniae. Particulars: CLSI broth microdilution, Muller-Hinton broth, 18–24 h, 35 ± 2 °C. The method, then: (§1) This experiment was conducted by Omnix Medical, by JMI Laboratories (North Liberty, IA, USA) and by Aptuit (Verona) S.r.l. (Italy), an Evotec Company. All studies were performed according to Clinical and Laboratory Standards Institute guidelines[30] for the application of the broth microdilution method. Reference strains from American Type Culture Collection (ATCC) and clinical isolates from the Evotec EvostrAIn and the JMI Laboratories SENTRY surveillance program culture collections (Acinetobacter baumannii: ACC 00445, ACC 00527, ACC 00535, ATCC 17978, ATCC 19606, ATCC BAA-1793, ACC 01076, ACC 01077, NCTC 13420, JMI #1088100 and JMI #1001007; Klebsiella pneumoniae: ATCC 43816 and ATCC BAA-1705; Escherichia coli: ACC 01001 and ATCC 25922; Staphylococcus aureus: ATCC 29213, ATCC BAA-44 and ATCC 33591; Bacillus cereus: ATCC 14579; Enterococcus faecalis: ATCC 29212; Enterococcus faecium: ATCC BAA-2319) were used. The antimicrobial activity of OMN6 was determined by 12 serial two-fold dilutions in water of the 100-fold highest compound solution; 1 µL of each well was transferred into 96 microtiter plates (final concentration: 256–0.12 µg/mL). In most strains, same procedure was used to determine the colistin antimicrobial activity (final concentration: 32–0.015 µg/mL). Bacterial strains were sub-cultured on the agar plates and incubated for 18–24 h at 35 ± 2 °C in ambient air. Following incubation, the inoculum was prepared from isolated colonies and adjusted to 0.5 McFarland turbidity standard (1 to 2 × 10^8 colony-forming units/mL) in 0.9% saline. Bacterial suspension was then diluted 1:200 in Muller-Hinton broth (from BD; Becton, Dickinson and Company, Franklin Lakes, NJ, USA) and within 15 min 100 µL/well were dispensed. Growth-control wells and sterility-check wells (uninoculated well) were present in each plate. Plates were incubated for 18–24 h at 35 ± 2 °C in ambient air. […] The antimicrobial activity to other antibiotics on most bacterial strains was determined by Evotec using the antimicrobial sensitive test from the VITEK 2 automated microbiology system (bioMérieux SA, Marcy l'Etoile, France; data presented in Table S1), or by ATCC according to CLSI (Clinical and Laboratory Standards Institute) guidelines[30]
Background: Dilution methods test growth across graded concentrations, often in twofold steps.

Another data set concerns Staphylococcus aureus. Particulars: CLSI broth microdilution, Muller-Hinton broth, 18–24 h, 35 ± 2 °C. How it is done: as §1
The test system of the next data set is mouse red blood cells. Briefly: Hemolysis assay. The data set is classed as cell-based. The conditions noted are these: 10% mouse erythrocytes, 6.25–200 µM (27–868 µg/mL), 1 h, 37 °C, absorbance 400 nm. How it is done:
Red Blood Cells (RBCs) suspension was prepared from whole blood extracted from the heart of Hsd:ICR (CD-1) mice (Envigo, Huntingdon, Cambridgeshire, UK). The study was carried out in accordance with relevant guidelines and regulations, and was approved by the Hebrew University Ethics Committee for the Care and Use of Laboratory Animals under approval number NS-15-14575-3. Briefly, blood was collected in a 24 U/mL heparin tube to prevent coagulation. Then cells were washed with Phosphate Buffered Saline (PBS; Biological Industries) and centrifuged at 200g for 10 min at 20 °C. This operation was repeated three times, then remaining RBCs were resuspended in saline or PBS to form a 10% RBC solution. Increasing concentrations of OMN6 or 1% Tween were added to RBCs. After an incubation of 1 h at 37 °C with shaking at 100 rpm, experiment tubes were centrifuged for 10 min at 200g at room temperature. 100 µL supernatant was extracted from each tube and tested according to the Hemoglobin Assay Kit (Sigma-Aldrich). Hemoglobin levels were determined via absorbance at 400 nm.

Another data set has as its target T1, Proteinase-K (Parengyodontium album, UniProt P06873).
T1 construct: purchased Sigma-Aldrich
Briefly: Peptide stability to Proteinase-K (SDS-PAGE). The data set is classed as in vitro ADME. Particulars: 10 µg peptide with 5 or 20 ng Proteinase-K (0.16 or 0.66 µg/mL), 2 h, 37 °C; 15% acrylamide SDS-PAGE, Coomassie stain. The method, then:
10 µg of synthetic cecropin A (Genscript, Piscataway, NJ, USA), OMN6, or bovine serum albumin (BSA; Sigma-Aldrich, St. Louis, MO, USA) were incubated with 5 or 20 ng Proteinase-K (Sigma-Aldrich; final treatment concentration of 0.16 or 0.66 µg/mL respectively) for 2 h at 37 °C, and separated on a 15% acrylamide gel (Bio-Rad, Hercules, CA, USA) by SDS-PAGE. The gel was then stained with Coomassie dye and excess color was removed over-night.

For a further data set, the system named is HEK293T cells. The class given is cell-based. The method, then:
HEK-293T17 cells (ATCC CRL-1573) were purchased from ATCC and cultured to 80% confluency according to the ATCC culture method, using high-glucose and L-Glutamine Dulbecco's Modified Eagle Medium (DMEM) medium (ATCC catalog number 30-2002) supplemented with 10% fetal bovine serum and 1% Penicillin–Streptomycin solution (all from Biological Industries). For the experiment purposes, 30,000 cells were transferred to a 96-well plate (experiment plate) in a final volume of 100 µL of medium. The experiment plate was incubated at 5% CO2 and 37 °C for approximately 18 h. After 18 h, medium was discarded, and cells were co-incubated with OMN6, Melittin (Sigma-Aldrich) or dimethyl sulfoxide (DMSO; MP Biomedical LLC, Solon, OH, USA) that were prepared in new medium at desired concentrations. The experiment plate was incubated at 5% CO2 and 37 °C for 24 h. Then, glutaraldehyde at a final concentration of 0.5% was added in all wells for 10 min for cell fixation. After washing the plate 3 times with DDW, the experiment plate was dried overnight. Then, cells were washed with 0.1 M Borate buffer (pH = 8.5) for 1 min. 100 µL Methylene Blue diluted in the same Borate buffer was added to all wells for 1 h. Wells were washed with DDW and plate was dried overnight. Color extraction was executed by adding 0.1 M HCl. After an incubation at 37 °C for 1 h, cell survival was determined via absorbance at 620 nm using a microplate reader.

The subject of data set [1] is Gram-positive strains (S. aureus, E. faecium, E. faecalis, B. cereus). Briefly: MIC, broth microdilution (CLSI), summary over strains. The data set is classed as cell-based. Particulars: E. faecalis and B. cereus, summary of Table 1. From the text: (Italy), an Evotec Company.

T1 sequence (P06873 106-384): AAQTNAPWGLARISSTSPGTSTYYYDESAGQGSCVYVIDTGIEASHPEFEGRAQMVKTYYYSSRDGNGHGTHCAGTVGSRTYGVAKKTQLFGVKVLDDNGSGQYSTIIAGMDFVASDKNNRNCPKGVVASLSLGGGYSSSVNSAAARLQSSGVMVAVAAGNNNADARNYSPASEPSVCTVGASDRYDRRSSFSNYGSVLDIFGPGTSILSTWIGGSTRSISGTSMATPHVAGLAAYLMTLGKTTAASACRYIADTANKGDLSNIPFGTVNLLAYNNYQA

With `CC[C@H](C)[C@@H]1NC(=O)CNC(=O)[C@H](CC(=O)O)NC(=O)[C@H](CCCNC(=N)N)NC(=O)[C@H]([C@@H](C)CC)NC(=O)[C@H](CC(N)=O)NC(=O)[C@H](CCC(N)=O)NC(=O)CNC(=O)[C@H](C(C)C)NC(=O)[C@H](CCCCN)NC(=O)[C@H](CCC(=O)O)NC(=O)[C@H]([C@@H](C)CC)NC(=O)[C@H](CCCCN)NC(=O)[C@H](CCCCN)NC(=O)[C@H](Cc2ccccc2)NC(=O)[C@H](CC(C)C)NC(=O)[C@H](CCCCN)NC(=O)[C@H](Cc2c[nH]c3ccccc23)NC(=O)[C@H](CCCCN)NC(=O)[C@@H](NC(=O)[C@@H](N)CCSC)CSSC[C@@H](C(N)=O)NC(=O)[C@H](CCCCN)NC(=O)[C@H](C)NC(=O)[C@H]([C@@H](C)CC)NC(=O)[C@H](CCC(N)=O)NC(=O)[C@H]([C@@H](C)O)NC(=O)[C@H](C)NC(=O)[C@H](CCC(N)=O)NC(=O)CNC(=O)[C@H](C(C)C)NC(=O)[C@H](C(C)C)NC(=O)[C@H](C)NC(=O)[C@H](C(C)C)NC(=O)[C@H](C)NC(=O)[C@@H]2CCCN2C(=O)CNC(=O)[C@H](C)NC(=O)[C@H](CCCCN)NC(=O)[C@H]([C@@H](C)CC)NC1=O` [OMN6] (H-MCKWKLFKKIEKVGQNIRDGIIKAGPAVAVVGQATQIAKC-NH2; disulfide 2-40; N-terminus assumed), the minimum inhibitory concentration (MIC) against Klebsiella pneumoniae (K. pneumoniae ATCC 43816 (S)) is on record as 16 µg/mL (≈ 3.69 µM); in the data set with Klebsiella pneumoniae (K. pneumoniae ATCC BAA-1705 (MDR)), 16 µg/mL (≈ 3.69 µM); in the data set with Staphylococcus aureus (S. aureus ATCC 29213 (MSSA)), greater than 256 µg/mL; against Staphylococcus aureus (S. aureus ATCC 33591 (MRSA)), greater than 256 µg/mL; in the data set on Staphylococcus aureus (S. aureus ATCC BAA-44 (MDR/MRSA)), greater than 256 µg/mL. Besides, the “Hemolysis expressed as free Hemoglobin” value in the data set on mouse red blood cells is recorded as “no hemolysis”. For the same molecule, the “Stability after exposure to Proteinase-K” value at Proteinase-K was “remained intact”. Besides, the “Survival rate of HEK293T cells” value in the data set with HEK293T cells (6.25–200 µM (27–868 µg/mL), 24 h, Methylene Blue, absorbance 620 nm, all concentrations) was “not affected”. The “Therapeutic window (no toxicity to mammalian cells vs MIC value against Gram-negative bacterial species)” value with HEK293T cells (relative to MIC against Gram-negative species) is “larger than tenfold”. Besides, in data set [1], the “MIC on all tested Gram-positive strains” value was greater than 256 µg/mL.

What is called MIC is the lowest concentration that inhibits growth of the organism. A high value points to a need for much substance.
